The numbers were not newly measured in US7189798B2, “Composition containing mixture of dihydroxybutane sulfonates” (Eastman Chemical Company, priority 2001, dated 2007), which cites them from elsewhere.

Structures are written as SMILES.

The conditions of this data set: in vivo.

Take `OC[C@H]1O[C@@H]2O[C@H]3[C@H](O)[C@@H](O)[C@@H](O[C@H]4[C@H](O)[C@@H](O)[C@@H](O[C@H]5[C@H](O)[C@@H](O)[C@@H](O[C@H]6[C@H](O)[C@@H](O)[C@@H](O[C@H]7[C@H](O)[C@@H](O)[C@@H](O[C@H]8[C@H](O)[C@@H](O)[C@@H](O[C@H]1[C@H](O)[C@H]2O)O[C@@H]8CO)O[C@@H]7CO)O[C@@H]6CO)O[C@@H]5CO)O[C@@H]4CO)O[C@@H]3CO` [β-CD, β-cyclodextrin]: the “Renal and liver damage after parenteral administration” value was “cause renal and liver damage”.
